The results in this text go back to PubChem BioAssay (NCI).

Test systems include UO-31 renal; CCRF-CEM leukemia; KM12 colon; M14 melanoma; ACHN renal; IGROV1 ovarian; SK-MEL-5 melanoma; COLO 205 colon; TK-10 renal; NCI-H522 lung.
Experiment in all cases: DTP human tumour cell line panel, 48 h

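Grown in 96-well plates, cells were treated for 48 hours with each compound at five concentrations. Insufficient inhibition: endpoint recorded as highest concentration tested. TGI: total growth inhibition.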

Turning to `Cc1cc(C)nc(NS(=O)(=O)c2ccc(NC(=O)c3ccc4nc5ccccc5c(Nc5ccc(S(N)(=O)=O)cc5)c4c3)cc2)n1`, the TGI (usually the concentration giving total growth inhibition) in the test on UO-31 renal is > 100 µM; in the test with CCRF-CEM leukemia, 78.3 µM; in the test on KM12 colon, > 100 µM; in the test with M14 melanoma, > 100 µM; in the test with ACHN renal, > 100 µM; with IGROV1 ovarian, > 100 µM. The TGI in the test with SK-MEL-5 melanoma, in the test with COLO 205 colon, with TK-10 renal and in the test on NCI-H522 lung was > 100 µM each time.
